The subject of the experiment is CD2F1 mice, L1210 leukemia ip, survival T/C. The experiment can be described thus: NCI In Vivo Anticancer Drug Screen. Data for tumor model L1210 Leukemia (intraperitoneal) in CD2F1 (CDF1) mice. The following applies: higher = longer survival. A digest of the protocol:
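Activity against a transplanted murine tumor was judged by comparing the compound group with a vehicle group. The outcome in the treated animals was divided by that in the controls.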

The mark [1] stands for this setting: endpoint: mean survival time, dose: 100.0 mg/kg/injection, schedule: Q04DX003 (ip), vehicle: saline with Tween-80.
The mark [2] stands for this setting: endpoint: mean survival time, dose: 100.0 mg/kg/injection, schedule: Q01DX009 (ip), vehicle: saline with Tween-80.
Setting [3] is: endpoint: mean survival time, dose: 200.0 mg/kg/injection, schedule: Q01DX009 (ip), vehicle: saline with Tween-80.
[4] abbreviates: endpoint: mean survival time, dose: 200.0 mg/kg/injection, schedule: Q04DX003 (ip), vehicle: saline with Tween-80.
The mark [5] stands for this setting: endpoint: mean survival time, dose: 400.0 mg/kg/injection, schedule: Q01DX009 (ip), vehicle: saline with Tween-80.
The mark [6] stands for this setting: endpoint: mean survival time, dose: 400.0 mg/kg/injection, schedule: Q04DX003 (ip), vehicle: saline with Tween-80.
Setting [7] is: endpoint: mean survival time, dose: 12.5 mg/kg/injection, schedule: Q01DX005 (ip), vehicle: water.
[8] abbreviates: endpoint: mean survival time, dose: 25.0 mg/kg/injection, schedule: Q01DX005 (ip), vehicle: water.
Setting [9] is: endpoint: mean survival time, dose: 50.0 mg/kg/injection, schedule: Q01DX005 (ip), vehicle: water.
The mark [10] stands for this setting: endpoint: mean survival time, dose: 100.0 mg/kg/injection, schedule: Q01DX005 (ip), vehicle: water.
Setting [11] is: endpoint: mean survival time, dose: 50.0 mg/kg/injection, schedule: Q01DX009 (ip), vehicle: Klucel (hydroxypropylcellulose) (HPC).
Setting [12] is: endpoint: mean survival time, dose: 100.0 mg/kg/injection, schedule: Q01DX009 (ip), vehicle: Klucel (hydroxypropylcellulose) (HPC).

SMILES strings stand for the structures. Several values for one entry are separate records, joined by “and”; a condition that tells them apart may be missing. Equal values may be shown once. Inconclusive results and toxic doses are left out.

Consider `Cc1cc(C)c(CN)cc1CN`, for which the T/C is 91 % of control (endpoint: mean survival time, dose: 25.0 mg/kg/injection, schedule: Q04DX003 (ip), vehicle: saline with Tween-80); 88 % of control (endpoint: mean survival time, dose: 50.0 mg/kg/injection, schedule: Q04DX003 (ip), vehicle: saline with Tween-80); 96 % of control under setting [1].

On to `CCOC(=O)c1ccc(NC(=O)N2CCC(CCCc3ccccc3)CC2)cc1`, for which the T/C is 100 % of control (endpoint: mean survival time, dose: 50.0 mg/kg/injection, schedule: Q01DX001 (ip), vehicle: saline with Tween-80); 88 % of control and 98 % of control (endpoint: mean survival time, dose: 100.0 mg/kg/injection, schedule: Q01DX001 (ip), vehicle: saline with Tween-80); 87 % of control and 91 % of control under setting [2]; 91 % of control and 95 % of control (endpoint: mean survival time, dose: 100.0 mg/kg/injection, schedule: Q04DX002 (ip), vehicle: saline with Tween-80); 98 % of control under setting [1]; 87 % of control and 93 % of control under setting [3]. The T/C is 91 % of control (endpoint: mean survival time, dose: 200.0 mg/kg/injection, schedule: Q04DX002 (ip), vehicle: saline with Tween-80); 87 % of control under setting [4]; 88 % of control and 94 % of control (endpoint: mean survival time, dose: 400.0 mg/kg/injection, schedule: Q01DX001 (ip), vehicle: saline with Tween-80); 93 % of control under setting [5]; 90 % of control (endpoint: mean survival time, dose: 400.0 mg/kg/injection, schedule: Q04DX002 (ip), vehicle: saline with Tween-80); 90 % of control under setting [6].

For the compound `Cn1c(=O)c2[nH]c(Cl)nc2n(C)c1=O`, the T/C runs as follows: under setting [7], 92 % of control; under setting [8], 93 % of control; under setting [9], 103 % of control; under setting [10], 87 % of control.

As to `OCC1OC(n2ncc3c2ncn2ccnc32)C(O)C1O` (configuration not stated), the T/C runs as follows: under setting [7], 101 % of control; under setting [8], 101 % of control; under setting [9], 97 % of control; under setting [10], 97 % of control; (endpoint: mean survival time, dose: 200.0 mg/kg/injection, schedule: Q01DX005 (ip), vehicle: water) 109 % of control.

Turning to `COC(=O)c1ccc(O)c(O)c1`, the T/C is, setting by setting: under setting [2], 102 % of control; under setting [1], 99 % of control; under setting [3], 101 % of control; under setting [4], 102 % of control; under setting [5], 90 % of control; under setting [6], 91 % of control.

For the compound `CC(=O)C(Cl)C(=O)c1c(C)[nH]n(-c2ccccc2)c1=O` (configuration not stated), the T/C runs as follows: (endpoint: median survival time, dose: 25.0 mg/kg/injection, schedule: Q01DX005 (ip), vehicle: Klucel (hydroxypropylcellulose) (HPC)) 112 % of control; (endpoint: median survival time, dose: 50.0 mg/kg/injection, schedule: Q01DX005 (ip), vehicle: Klucel (hydroxypropylcellulose) (HPC)) 111 % of control; (endpoint: median survival time, dose: 100.0 mg/kg/injection, schedule: Q01DX005 (ip), vehicle: Klucel (hydroxypropylcellulose) (HPC)) 111 % of control.

Regarding `CCSCCCCO`, the T/C by setting is: (endpoint: mean survival time, dose: 75.0 mg/kg/injection, schedule: Q04DX003 (ip), vehicle: saline) 97 % of control; (endpoint: mean survival time, dose: 150.0 mg/kg/injection, schedule: Q04DX003 (ip), vehicle: saline) 103 % of control; (endpoint: mean survival time, dose: 300.0 mg/kg/injection, schedule: Q04DX003 (ip), vehicle: saline) 98 % of control.

Regarding `CS(=O)(=O)[O-].CS(=O)(=O)[O-].NC1CCCCC1N.[Pt+4]` (configuration not stated), the T/C (endpoint: mean survival time, dose: 0.16 mg/kg/injection, schedule: Q04DX003 (ip), vehicle: other) was 124 % of control; the T/C (endpoint: mean survival time, dose: 0.62 mg/kg/injection, schedule: Q01DX009 (ip), vehicle: dextrose) was 119 % of control; the T/C (endpoint: mean survival time, dose: 5.0 mg/kg/injection, schedule: Q01DX009 (ip), vehicle: dextrose) was 93 % of control.

As for `Nc1ccccc1OCCCn1cc(-c2ccc(Cl)c(Cl)c2)c(N)nc1=O`, the T/C under setting [11] was 94 % of control; the T/C under setting [12] is 101 % of control; the T/C (endpoint: mean survival time, dose: 200.0 mg/kg/injection, schedule: Q01DX009 (ip), vehicle: Klucel (hydroxypropylcellulose) (HPC)) was 90 % of control.

For the compound `CC[n+]1ccc(Nc2ccc(NC(=O)c3ccc(Nc4cc[n+](CC)c5ccc(N)cc45)cc3)cc2)cc1`, the T/C is, setting by setting: (endpoint: mean survival time, dose: 0.25 mg/kg/injection, schedule: Q01DX009 (ip), vehicle: saline) 109 % of control; (endpoint: mean survival time, dose: 0.5 mg/kg/injection, schedule: Q01DX009 (ip), vehicle: water) 153 % of control; (endpoint: mean survival time, dose: 1.0 mg/kg/injection, schedule: Q01DX009 (ip), vehicle: saline) 154 % of control; (endpoint: mean survival time, dose: 1.0 mg/kg/injection, schedule: Q01DX009 (ip), vehicle: water) 228 % of control; (endpoint: mean survival time, dose: 2.0 mg/kg/injection, schedule: Q01DX009 (ip), vehicle: saline) 243 % of control; (endpoint: mean survival time, dose: 2.0 mg/kg/injection, schedule: Q01DX009 (ip), vehicle: water) 224 % of control. For the same compound, the T/C (endpoint: mean survival time, dose: 4.0 mg/kg/injection, schedule: Q01DX009 (ip), vehicle: water) is 115 % of control.

In the case of `O=C1NC(=O)C2(CCc3ccc(N(CCCl)CCCl)cc32)N1` (configuration not stated), the T/C reads like this: (endpoint: mean survival time, dose: 6.25 mg/kg/injection, schedule: Q01DX009 (ip), vehicle: Klucel (hydroxypropylcellulose) (HPC)) 117 % of control; (endpoint: mean survival time, dose: 6.25 mg/kg/injection, schedule: Q01DX009 (oral), vehicle: saline with Tween-80) 96 % of control and 97 % of control; (endpoint: mean survival time, dose: 12.5 mg/kg/injection, schedule: Q01DX009 (oral), vehicle: saline with Tween-80) 100 % of control and 105 % of control; (endpoint: mean survival time, dose: 25.0 mg/kg/injection, schedule: Q01DX009 (ip), vehicle: Klucel (hydroxypropylcellulose) (HPC)) 154 % of control and 157 % of control; (endpoint: mean survival time, dose: 25.0 mg/kg/injection, schedule: Q01DX009 (oral), vehicle: saline with Tween-80) 102 % of control and 104 % of control; under setting [11], 122 % of control and 103 % of control. Besides, the T/C is 100 % of control and 104 % of control (endpoint: mean survival time, dose: 50.0 mg/kg/injection, schedule: Q01DX009 (oral), vehicle: saline with Tween-80); 97 % of control under setting [12]; 107 % of control and 109 % of control (endpoint: mean survival time, dose: 100.0 mg/kg/injection, schedule: Q01DX009 (oral), vehicle: saline with Tween-80); 106 % of control and 110 % of control (endpoint: mean survival time, dose: 200.0 mg/kg/injection, schedule: Q01DX009 (oral), vehicle: saline with Tween-80).

For the compound `COc1ccc(CCN)cc1OC`, the T/C runs as follows: (endpoint: mean survival time, dose: 50.0 mg/kg/injection, schedule: Q01DX009 (ip), vehicle: saline) 94 % of control; (endpoint: mean survival time, dose: 100.0 mg/kg/injection, schedule: Q01DX009 (ip), vehicle: saline) 94 % of control; under setting [1], 97 % of control; (endpoint: mean survival time, dose: 200.0 mg/kg/injection, schedule: Q01DX009 (ip), vehicle: saline) 97 % of control; under setting [4], 93 % of control.

`c1ccc([Si]c2ccccc2)cc1`: the T/C by setting is: under setting [1], 104 % of control; under setting [4], 102 % of control; under setting [6], 102 % of control.

For `CCOC(=O)N1CCN(N=Nc2c(C(=O)OC)n[nH]c2C)CC1`, the T/C (endpoint: mean survival time, dose: 75.0 mg/kg/injection, schedule: Q01DX001 (ip), vehicle: other) is 103 % of control; the T/C (endpoint: mean survival time, dose: 150.0 mg/kg/injection, schedule: Q01DX001 (ip), vehicle: other) was 105 % of control; the T/C (endpoint: mean survival time, dose: 300.0 mg/kg/injection, schedule: Q01DX001 (ip), vehicle: other) was 105 % of control.

Take `CC(=O)CS(=O)(=O)CC(N)=O`: the T/C is, setting by setting: (endpoint: mean survival time, dose: 100.0 mg/kg/injection, schedule: Q01DX001 (ip), vehicle: saline sonified) 96 % of control; (endpoint: mean survival time, dose: 200.0 mg/kg/injection, schedule: Q01DX001 (ip), vehicle: saline sonified) 96 % of control; (endpoint: mean survival time, dose: 400.0 mg/kg/injection, schedule: Q01DX001 (ip), vehicle: saline sonified) 97 % of control.

On to `COc1cc2c(cc1O)NC(OC)C1CC(O)CN1C2=O` (configuration not stated), for which the T/C was 101 % of control (endpoint: median survival time, dose: 0.02 mg/kg/injection, schedule: Q01DX005 (ip), vehicle: DMSO); 102 % of control (endpoint: median survival time, dose: 0.4 mg/kg/injection, schedule: Q01DX005 (ip), vehicle: DMSO); 100 % of control (endpoint: median survival time, dose: 0.8 mg/kg/injection, schedule: Q01DX005 (ip), vehicle: DMSO); 102 % of control (endpoint: median survival time, dose: 1.6 mg/kg/injection, schedule: Q01DX005 (ip), vehicle: DMSO); 111 % of control (endpoint: median survival time, dose: 3.2 mg/kg/injection, schedule: Q01DX005 (ip), vehicle: DMSO); 115 % of control (endpoint: median survival time, dose: 6.4 mg/kg/injection, schedule: Q01DX005 (ip), vehicle: DMSO).

Take `C=CCNC(=O)/C=C/C(=O)O`: the T/C is 97 % of control (endpoint: mean survival time, dose: 100.0 mg/kg/injection, schedule: Q04DX003 (ip), vehicle: saline); 97 % of control (endpoint: mean survival time, dose: 200.0 mg/kg/injection, schedule: Q04DX003 (ip), vehicle: saline); 103 % of control (endpoint: mean survival time, dose: 400.0 mg/kg/injection, schedule: Q04DX003 (ip), vehicle: saline).

Source of the values: PubChem BioAssay AID256 (DTP/NCI, 2004).
